Assay results reported in paper PMC6290023 (Scientific Reports, 2018).
Peptide text beside a SMILES is read from it.

Assays:
[1] = system: LPS-stimulated MG6 cells; assay: LDH assay in LPS-stimulated MG6 cells; format: cell-based, mouse
[2] = system: tMCAo model in mice; assay: Transient middle cerebral artery occlusion (tMCAo) model; format: in vivo; conditions: mouse tMCAo; for reduction of infarct volume: 150 μl i.v. 6 h after MCAo then s.c. Alzet pump 24 h; for neurological deficits (neurological severity score): start 6 h after MCAo
Description: The plan of animal studies was approved by the Animal Committee of Graduate School of Medicine, Osaka University (25-029-012), and all animal experiments were carried out in accordance with the guidelines of Osaka University. All surgeries were performed using isoflurane and all efforts were made to minimize suffering. The C57Bl6/J mice were obtained from CLEA Japan, Inc. The transient middle cerebral artery occlusion procedure was described previously (1). Briefly, the mice were anesthetized with isoflurane (1.4%). The cerebral blood flow (CBF) was measured using a laser Doppler flowmeter (Unique Acquisition software; Unique Medical, Osaka, Japan). A 6.0 monofilament surgical suture was advanced into the internal carotid artery to obstruct the origin of the middle cerebral artery. The filament was left in place for 40 min before withdrawal. For all the mice, the rectal temperature was maintained at 37.0 ± 0.5 °C during surgery and recovery period (until the animals regained consciousness). […] MHP1 (4 mg/ml in water) was diluted to 0.5, 1, or 2 mg/ml in 0.45% saline, and 150 μl of the MHP1 was injected intravenously at 6 or 8 h after the MCAo. MHP1 was subsequently injected subcutaneously for 24 hrs using Alzet mini-osmotic pump (2001D, DURECT Corporation, Cupertino, USA). The vehicle control for MHP1, 0.45% saline, was injected similarly.
The ischemic damage was evaluated at 48 h after MCAo in sections stained with cresyl violet. Coronal sections (12 μm thickness) were made at −1.4, −0.7, 0, 0.7 and 1.4 mm from the bregma, mounted on the stereomicroscope and photographed. The volume of the infarct was calculated by the sum of each area of all sections corrected by cerebral edema and multiplied by the thickness of the slices. In the experiment of tPA-induced hemorrhage, PE10-catheter was placed in the right internal jugular vein at 6 h after ischemia. The nylon suture was then removed and 10% of the MHP-AcN mixture (150 µg/mice) and tPA (10 mg/kg) were injected followed by continuous injection of residual mixture of MHP1-AcN and tPA using a syringe pump (UNIVENTOR 400 ANAESTHESIA UNIT, ZTN, MALTA). In the experiment of FeCl3 -induced thrombosis model in CCA, a piece of filter paper soaked in 7.5% FeCl3 was placed on the right CCA for 1 min and it was rinsed with saline. Blood flow was recorded by using a laser speckle blood flow imager (OMEGAZONE OZ-2, OMEGAWAVE, INC., Tokyo, Japan). tPA (10 mg/kg) or mixture of MHP1-AcN (150 μg/mice) and tPA was started to be administered at 30 min after CCA occlusion.

[3] = system: mouse osteoclast precursor cells; assay: Osteoclast differentiation of mouse osteoclast precursor cells (TRAP-positive large cells); format: cell-based; conditions: M-CSF 50 ng/ml, 5 days
Description: Osteoclast differentiation was examined using a mouse osteoclast culture system obtained from Cosmo Bio Co. Ltd. (Tokyo, Japan). Mouse osteoclast precursor cells seeded in a 24-well plate were incubated with macrophage colony stimulating factor (50 ng/ml) and RANKL (50 ng/ml) with or without MHP1-AcN. After five days, osteoclast precursors stimulated with RANKL had fused with each other and became multinucleated TRAP-positive cells. Cells with more than ten nuclei were classified as large osteoclasts. The number of these cells in each group was counted with a phase contrast microscope (BZ-9000, Keyence, Tokyo) using BZII analyzer software (v1.42; Keyence, Tokyo).

[4] = system: LPS-stimulated MG6 cells; assay: Anti-inflammatory effect in LPS-stimulated MG6 cells (TNF-α / IL-6 ELISA); format: cell-based, mouse
Description: MG6 cells were obtained from RIKEN BRC (Tsukuba, Japan)[25],[26]. The MG6 cells were maintained in DMEM (Nakarai, Kyoto, Japan) supplemented with 10% FBS (Thermo Fisher Scientific, Waltham, MA, USA), 10 μg/ml insulin (Sigma-Aldrich, St. Louis, MO, USA) and 100 μM 2-mercaptoethanol (Sigma-Aldrich). These cells (1 × 10^5 cells) were plated in 96-well plastic culture dishes. After overnight incubation, the medium was replaced with DMEM supplemented with 4% FBS. LPS (Escherichia coli 0111: B4; Sigma-Aldrich, St. Louis, MO, USA) and MHP1 or modified MHP1 was added to the medium, which was then harvested at 24 h after stimulation. In the experiment checking the stability at 26 or 37 °C, MHP1-Ac or MHP1-AcN was incubated at 26 or 37 °C for 24 h before adding to the medium.
The concentrations of TNF-α and IL-6 were measured using commercially available ELISA kits: TNF-α, Quantikine Mouse TNF-α ELISA Kit (R&D systems); IL-6, Quantikine Mouse IL-6 ELISA Kit (R&D systems).

[5] = Pharmacokinetics after intravenous injection 4 h after tMCAo (LC/MS/MS); format: in vivo; conditions: mouse, i.v. 2 mg/ml, 10 ml/kg in 0.45% saline
Description: MHP1-Ac or MHP1-AcN (2 mg/ml, 10 ml/kg in 0.45% saline) was administered intravenously 4 hrs after tMCAo and mouse plasma was collected at 5 min, 10 min, 20 min, 30 min, 45 min, 1 h, and 2 h after injection. Mouse plasma (C57BL6J, 10 µL) and water/phosphoric acid (24:1, v/v) (Solution B, 500 µL) were mixed together to prepare the plasma samples. The samples (510 µL) were then analyzed using LC/MS/MS to determine MHP1-Ac or MHP1-AcN in plasma. Mouse brain was weighed and mixed with a 4-fold volume of solution B and the mixture was homogenized to prepare the brain samples. The specific gravity of solution B was assumed to be 1. The brain samples (10 µL) were analyzed using LC/MS/MS to determine MHP1-Ac or MHP1-AcN in brain. MHP1-Ac and MHP1-AcN, and MHP1-N (internal standard), in the plasma samples and brain samples, were extracted using Oasis HLB μElution Plate (Waters). Chromatographic analysis was performed on an InertSustain C18 (2.1 mm I.D. ×50 mm, 3 µm, GL Sciences) column using the mobile phase A, water/formic acid (1000:1, v/v), and the mobile phase B, acetonitrile/formic acid (1000:1, v/v).

[6] = LPS-stimulated MG6 cells, medium harvested 24 h after stimulation, ELISA

expression of TNF-α with peptide pre-incubated at 4, 37 or 26 °C (retention of anti-inflammatory effect) ([4]; peptide incubated at 4, 37 or 26 °C for 24 h, then added to LPS-stimulated MG6 cells): no significant differences
level at 0.5 h ([5]; C57BL6J, iv, 20 mg/kg, plasma, 30 min, read-out: intact peptide in plasma 30 min post-injection): ~8000 ng/mL
time post-injection until which peptide was detected in the brain ([5]; brain homogenate, last sampling 2 h): 2 h
Compound: CC[C@H](C)[C@H](NC(=O)[C@H](CO)NC(=O)[C@@H](NC(=O)[C@H](CCCCN)NC(=O)[C@@H](NC(=O)[C@@H](NC(=O)[C@H](Cc1ccc(O)cc1)NC(=O)[C@@H](NC(=O)[C@H](CCSC)NC(=O)[C@H](CC(C)C)NC(C)=O)C(C)C)C(C)C)C(C)C)[C@@H](C)O)C(=O)N[C@@H](CCCCN)C(=O)N[C@H](C(=O)N1CCC[C@H]1C(=O)N[C@@H](CO)C(=O)N[C@@H](CO)C(=O)N[C@@H](Cc1c[nH]cn1)C(=O)N[C@@H](CC(N)=O)C(=O)N[C@@H](CC(C)C)C(=O)N[C@@H](CCSC)C(=O)N[C@@H](CCCCN)C(=O)NCC(=O)NCC(=O)N[C@@H](CO)C(=O)N[C@H](C(=O)N[C@@H](CCCCN)C(=O)N[C@@H](CC(N)=O)C(=O)N[C@@H](Cc1c[nH]c2ccccc12)C(=O)N[C@@H](CO)C(=O)NCC(=O)N[C@@H](CC(N)=O)C(N)=O)[C@@H](C)O)[C@@H](C)CC [MHP1-AcN] (Ac-LMVYVVKTSIKIPSSHNLMKGGSTKNWSGN-NH2)
cytotoxicity (LDH assay) [1]: did not increase cytotoxicity
reduction of infarct volume ([2]; 0.5 mg/ml, infarct at 48 h): effective
neurological deficits (neurological severity score) ([2]; 0.5 mg/ml): significantly improved
reduction of infarct volume ([2]; 1 mg/ml, infarct at 48 h): the most effective dose
neurological deficits (neurological severity score) ([2]; 1 mg/ml): significantly improved
neurological deficit ([2]; 1 mg/ml, start 8 h after ischemia, at 48 h after ischemia): significantly improved
infarct volume compared to saline-treated mice ([2]; 1 mg/ml, start 8 h after ischemia, infarct at 48 h): tendency of reduction
reduction of infarct volume ([2]; 2 mg/ml, infarct at 48 h): effective
neurological deficits (neurological severity score) ([2]; 2 mg/ml): tendency of recovery
effect on RANKL-induced osteoclast differentiation ([3]; RANKL 50 ng/ml): inhibited RANKL-induced osteoclast differentiation
effect on osteoclast differentiation (peptide alone) ([3]; without RANKL): did not affect the osteoclast differentiation
anti-inflammatory effects at 1 µg/ml ([4]; LPS-stimulated MG6 cells, 1 µg/ml peptide): anti-inflammatory effects were seen
dose dependency of anti-inflammatory effects ([4]; LPS-stimulated MG6 cells, 24 h, ELISA): Dose-dependent anti-inflammatory effects were observed
inhibition of IL-6 expression compared with MHP1 [4, 6]: more effective than MHP1
inhibition of TNF-α expression compared with MHP1 [4, 6]: more effective than MHP1
